Source: US10316039B2, “P2X3 and/or P2X2/3 compounds and methods” (Asana Biosciences, LLC, priority 2013, dated 2019)

Legend:
Type in all cases: in vivo
[1] = test system: thermal hyperalgesia induced by intraplantar Complete Freund's Adjuvant; test: CFA-induced inflammatory thermal hyperalgesia (Hargreaves test); details: rat, 60 mg/kg, dosed 48 h after footpad CFA
Protocol: (§1) FIG. 2 illustrates the antihyperalgesic effects of the compound of example 22 in a rat model of inflammatory thermal hyperalgesia induced by an intraplantar injection of Complete Freund's Adjuvant (CFA). Thermal hyperalgesia is manifest as a reduction in the time for foot-withdrawal during irradiation with a painful thermal stimulus. The compound of example 22 was administered at a dose of 60 mg/kg, 48 h after footpad injection of CFA and produced a substantial reversal (77% and 68%) of thermal hyperalgesia when assessed at 1 h and 2 h post-dose, respectively.
as §1, with “5” for “2”, “38” for “22”, “CFA.” for “Complete Freund's Adjuvant (CFA).”, “(50%)” for “(77% and 68%)”, “post-dose.” for “and 2 h post-dose, respectively.”
as §1, with “6” for “2”, “52” for “22”, “CFA.” for “Complete Freund's Adjuvant (CFA).”, “(39%)” for “(77% and 68%)”, “post-dose.” for “and 2 h post-dose, respectively.”
Male Sprague Dawley rats of young adult age group and body weight range of 180-200 g were included in the study. Animals were housed under a 12 h light/dark cycle with food and water ad libitum. The animals underwent acclimatization with the observation chambers of the Hargreaves' apparatus for two days, twice daily for 45-60 min each time prior to initiation of study. Animals were also habituated to the apparatus for 15-30 min before each testing. Thermal hyperalgesia was assessed using the rat plantar test (Ugo Basile, Italy) following a modified method of Hargreaves (1988, “A new and sensitive method for measuring thermal nociception in cutaneous hyperalgesia”, Pain 32: 77-88). […]
Following basal readout of PWL values to the thermal stimulus (PWL measurements described previously), 50 μL of complete Freund's Adjuvant (CFA—1 mg/mL suspension—Sigma, USA, Cat # F5881) was injected subcutaneously into the plantar surface of the right hind (ipsilateral) paw of animals under light isoflurane anesthesia. […]
Next day (day 1) after 20-22 h of CFA injection, PWL of animals were recorded. Mean of three readings are taken as PWL recording of ipsilateral paw of each animal for pre and post CFA basal readout. […]

[2] = test system: acetic acid-induced writhing (visceral pain); test: Acetic acid induced writhing test; details: mouse, 20, 40 and 60 mg/kg oral gavage, 30 min before i.p. acetic acid, counted 15 min
Protocol: FIG. 4 illustrates the antinociceptive effects of the compound of example 22 in a mouse model of visceral pain. The compound of example 22 was administered by oral gavage at 3 dose levels (20, 40 and 60 mg/kg) 30 min prior to an intraperitoneal injection of a dilute acetic acid solution. When injected into the abdominal cavity, acetic acid induces a distinctive stretching response in the abdomen and at least one hind limb that is assumed to reflect a response to visceral pain. […] Statistical significance is indicated with respect to the vehicle control group and was performed using a one-way ANOVA followed by Dunnett's multiple comparison test. Swiss albino mice of 30-40 g were included in the study. The mice were given an intraperitoneal injection of 0.7% v/v acetic acid solution at an injection volume of 10 mL/kg, 30 min after oral administration of vehicle or test article control. Test articles were administered, typically, at doses between 20 and 60 mg/kg. The mice were placed individually into glass chambers. The number of writhes produced in these animals was counted for 15 min following acetic acid administration. For scoring purposes writhing was indicated by stretching of the abdomen with simultaneous stretching of at least one hind limb. See, e.g., FIG. 4. Statistical analysis was done with One way ANOVA followed by Dunnett's multiple comparison tests. […]

[3] = test system: formalin-induced hind limb flinching; test: Formalin induced pain (Automated Nociception Analyzer test); details: rat, 100 mg/kg oral gavage, 30 min before footpad formalin
Protocol: FIG. 3 illustrates the antinociceptive effects of the compound of example 22 in a rat model of ongoing spontaneous pain. The compound of example 22 was administered by oral gavage at a dose of 100 mg/kg followed 30 min later by a footpad injection of a dilute formalin solution. Formalin elicits a typical biphasic nociceptive response that manifests as spontaneous hind limb flinches which are counted and binned over 5 min epochs. […] Male Sprague Dawley rats of young adult age group and body weight range of 200-250 g were included in the study. Animals were housed under a 12 h light/dark cycle with food and water ad libitum. Animals were acclimatized in the observation chambers of Automated Nociception Analyzer (ANA) for 45-60 min, twice daily for two days prior to the study day. On the day of the study, metal bands were glued to the plantar surface of the right hind paw of each animal enrolled in the study set and kept in plastic observation chambers for 10-15 min. […] […] count data for each animal was recorded from 1 to 60 min post formalin injection, using ANA motion analysis software. The study was analyzed in 2 phases, the early phase extended from 0-10 min and second phase extended from 11-60 min post formalin injection. […]

SMILES | reversal of thermal hyperalgesia ([1]; assessed 1 h post-dose) [%] | pain responses (writhes) after acetic acid [2] | reversal of thermal hyperalgesia ([1]; assessed 2 h post-dose) [%] | second phase flinching response to formalin [3]
C[C@H](NC(=O)c1cc(-n2nncc2C(F)F)c2ncc(-c3ccc(Cl)s3)n2c1)c1nnc[nH]1 [Example 38] | 50 | – | – | –
CC[C@H](NC(=O)c1cc(-n2nncc2C(F)F)c2ncc(-c3ccc(C)s3)n2c1)c1nnc[nH]1 [Example 52] | 39 | – | – | –
CCc1cnnn1-c1cc(C(=O)NCc2ccc(C)nc2)cn2c(-c3ccc(C)s3)cnc12 [Example 22] | 77 | clear dose-related reduction in the pain responses | 68 | attenuated the second phase flinching response to formalin
